Tests used:
Assay in all cases: Biochemical Assay
GTPase KRas [Q61H] = GTPase KRas [Q61H] (Homo sapiens, UniProt P01116, Q61H)
Source text: (§1) The purpose of this biochemical assay is to measure the ability of test compounds to covalently label nucleotide-loaded K-Ras isoforms. […] Analysis of raw data may be carried out using Waters MassLynx MS software, with % bound calculated from the deconvoluted protein peaks for labeled and unlabeled K-Ras.

GTPase KRas [G12C] = GTPase KRas [G12C] (Homo sapiens, UniProt P01116, G12C)
Source text: as §1

GTPase NRas [G12C] = GTPase NRas [G12C] (Homo sapiens, UniProt P01111, G12C)
GTPase NRas = GTPase NRas (Homo sapiens, UniProt P01111)
GTPase NRas [Q61R] = GTPase NRas [Q61R] (Homo sapiens, UniProt P01111, Q61R)
GTPase KRas = GTPase KRas (Homo sapiens, UniProt P01116)
Source text: as §1

GTPase NRas [Q61K] = GTPase NRas [Q61K] (Homo sapiens, UniProt P01111, Q61K)
GTPase KRas [G13C] = GTPase KRas [G13C] (Homo sapiens, UniProt P01116, G13C)
Source text: as §1

Chain of GTPase NRas (P01111 whole entry): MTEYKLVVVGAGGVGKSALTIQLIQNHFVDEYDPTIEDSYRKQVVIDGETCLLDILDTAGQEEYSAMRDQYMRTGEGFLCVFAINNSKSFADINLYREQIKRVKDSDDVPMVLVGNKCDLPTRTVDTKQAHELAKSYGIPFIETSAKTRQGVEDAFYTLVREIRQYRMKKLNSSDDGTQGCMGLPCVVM
Chain of GTPase KRas [G12C] (P01116 whole entry G12C): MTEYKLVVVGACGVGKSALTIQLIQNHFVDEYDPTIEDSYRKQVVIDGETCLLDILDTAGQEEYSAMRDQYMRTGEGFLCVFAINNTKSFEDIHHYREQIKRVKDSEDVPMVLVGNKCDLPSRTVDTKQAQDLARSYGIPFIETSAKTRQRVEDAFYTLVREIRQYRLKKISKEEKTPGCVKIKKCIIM
Chain of GTPase NRas [G12C] (P01111 whole entry G12C): as the sequence (P01111 whole entry) above, with G12C counted along it
Chain of GTPase KRas (P01116 whole entry): as the sequence (P01116 whole entry G12C) above, with C12G counted along it
Chain of GTPase NRas [Q61R] (P01111 whole entry Q61R): as the sequence (P01111 whole entry) above, with Q61R counted along it
Chain of GTPase KRas [G13C] (P01116 whole entry G13C): as the sequence (P01116 whole entry G12C) above, with C12G, G13C counted along it
Chain of GTPase KRas [Q61H] (P01116 whole entry Q61H, canonical isoform): as the sequence (P01116 whole entry G12C) above, with C12G, Q61H counted along it
Chain of GTPase NRas [Q61K] (P01111 whole entry Q61K): as the sequence (P01111 whole entry) above, with Q61K counted along it

Compound | IC50 (GTPase KRas [G12C]) | IC50 (GTPase NRas [G12C]) | IC50 (GTPase NRas [Q61R]) | also measured
C=CC(=O)N1CC[C@H](C(=O)N(C)[C@H](C(=O)N[C@H]2Cc3cc(O)cc(c3)-c3ccc4c(c3)c(c(-c3cccnc3COC)n4CC)CC(C)(C)COC(=O)[C@@H]3CCCN(N3)C2=O)C(C)C)C1 [US11566007, Example A16] | in the range around 55 nM | in the range around 55 nM | – | IC50 (GTPase KRas [Q61H]): in the range around 550 nM
C=CC(=O)N1CC[C@H](C(=O)N(C)[C@H](C(=O)N[C@H]2Cc3cc(O)cc(c3)-c3ccc4c(c3)c(c(-c3ccccc3[C@H](C)OC)n4CC)CC(C)(C)COC(=O)[C@@H]3CCCN(N3)C2=O)C(C)C)C1 [US11566007, Example A22] | – | – | – | IC50 (GTPase KRas [Q61H]): in the range around 55 nM; IC50 (GTPase NRas): in the range around 550 nM
C=CC(=O)N1CC[C@H](C(=O)N(C)[C@H](C(=O)N[C@H]2Cc3cc(O)cc(c3)-c3ccc4c(c3)c(c(-c3ccccc3)n4CC)CC(C)(C)COC(=O)[C@@H]3CCCN(N3)C2=O)C(C)C)C1 [US11566007, Example A23] | in the range around 550 nM | – | – | IC50 (GTPase NRas): > 10000 nM
C=CC(=O)N1CC[C@H](C(=O)N(C)[C@H](C(=O)N[C@H]2Cc3cc(O)cc(c3)-c3ccc4c(c3)c(c(-c3c(F)cccc3CCOC)n4CC)CC(C)(C)COC(=O)[C@@H]3CCCN(N3)C2=O)C(C)C)C1 [US11566007, Example A25] | in the range around 550 nM | – | > 10000 nM | IC50 (GTPase NRas): in the range around 5500 nM
C=CC(=O)N1CC[C@H](C(=O)N(C)[C@H](C(=O)N[C@H]2Cc3cc(O)cc(c3)-c3ccc4c(c3)c(c(-c3ccccc3N3CCOCC3)n4CC)CC(C)(C)COC(=O)[C@@H]3CCCN(N3)C2=O)C(C)C)C1 [US11566007, Example A26] | in the range around 550 nM | – | > 10000 nM | –
C=CC(=O)N1CC[C@H](C(=O)N(C)[C@H](C(=O)N[C@H]2Cc3cc(O)cc(c3)-c3ccc4c(c3)c(c(-c3ccccc3COC)n4CC)CC(C)(C)COC(=O)[C@@H]3CCCN(N3)C2=O)C2CCCC2)C1 [US11566007, Example A27] | in the range around 55 nM | – | – | IC50 (GTPase KRas): in the range around 5500 nM
C=CC(=O)N1CC[C@H](C(=O)N(C)[C@H](C(=O)N[C@H]2Cc3cc(O)cc(c3)-c3ccc4c(c3)c(c(-c3cccnc3)n4CC)CC(C)(C)COC(=O)[C@@H]3CCCN(N3)C2=O)C(C)C)C1 [US11566007, Example A45] | – | – | > 10000 nM | IC50 (GTPase NRas): in the range around 5500 nM
C=CC(=O)N1CC[C@H](C(=O)N(C)[C@H](C(=O)N[C@H]2Cc3cc(O)cc(c3)-c3ccc4c(c3)c(c(-c3ccc5c(c3)OCCN5C)n4CC)CC(C)(C)COC(=O)[C@@H]3CCCN(N3)C2=O)C(C)C)C1 [US11566007, Example A50] | in the range around 550 nM | – | > 10000 nM | –
C=CC(=O)N1CC[C@H](C(=O)N(C)[C@H](C(=O)N[C@H]2Cc3cc(O)cc(c3)-c3cc(F)c4c(c3)c(c(-c3ccccc3CCOC)n4CC)CC(C)(C)COC(=O)[C@@H]3CCCN(N3)C2=O)C(C)C)C1 [US11566007, Example A53] | in the range around 550 nM | – | – | IC50 (GTPase NRas [Q61K]): > 10000 nM
C=CC(=O)N1CC[C@H](C(=O)N(C)[C@H](C(=O)N[C@H]2Cc3cc(O)cc(c3)-c3ccc4c(c3)c(c(-c3cccnc3N3CC(OC)C3)n4CC)CC(C)(C)COC(=O)[C@@H]3CCCN(N3)C2=O)C(C)C)C1 [US11566007, Example A60] | in the range around 550 nM | – | > 10000 nM | –
C=CC(=O)N1CC[C@H](C(=O)N(C)[C@H](C(=O)N[C@H]2Cc3cc(O)cc(c3)-c3ccc4c(c3)c(c(C3=C(COC)CCCC3)n4CC)CC(C)(C)COC(=O)[C@@H]3CCCN(N3)C2=O)C(C)C)C1 [US11566007, Example A64] | in the range around 55 nM | – | in the range around 5500 nM | IC50 (GTPase KRas [G13C]): in the range around 5500 nM
C=CC(=O)N1CC[C@H](C(=O)N(C)[C@H](C(=O)N[C@H]2Cc3cc(O)cc(c3)-c3ccc4c(c3)c(c(-c3cnccc3C)n4CC)CC(C)(C)COC(=O)[C@@H]3CCCN(N3)C2=O)C(C)C)C1 [US11566007, Example A77] | – | – | – | IC50 (GTPase KRas): in the range around 550 nM
C=CC(=O)N1CC[C@H](C(=O)N(C)[C@H](C(=O)N[C@H]2Cc3cc(O)cc(c3)-c3ccc4c(c3)c(c(-c3c(CCOC)cccc3OC)n4CC)CC(C)(C)COC(=O)[C@@H]3CCCN(N3)C2=O)C(C)C)C1 [US11566007, Example A80] | in the range around 550 nM | – | > 10000 nM | –
C=CC(=O)N1CC[C@H](C(=O)N(C)[C@H](C(=O)N[C@H]2Cc3cc(O)cc(c3)-c3ccc4c(c3)c(c(-c3cncc(COC)c3)n4CC)CC(C)(C)COC(=O)[C@@H]3CCCN(N3)C2=O)C(C)C)C1 [US11566007, Example A83] | in the range around 55 nM | – | – | IC50 (GTPase KRas): in the range around 5500 nM; IC50 (GTPase NRas): in the range around 5500 nM
C=CC(=O)N1CC[C@H](C(=O)N(C)[C@H](C(=O)N[C@H]2Cc3cc(O)cc(c3)-c3ccc4c(c3)c(c(-c3ncccc3COC)n4CC)CC(C)(C)COC(=O)[C@@H]3CCCN(N3)C2=O)C(C)C)C1 [US11566007, Example A84] | – | – | – | IC50 (GTPase NRas [Q61K]): > 10000 nM
C=CC(=O)N1CC[C@H](C(=O)N(C)[C@H](C(=O)N[C@H]2Cc3cc(O)cc(c3)-c3ccc4c(c3)c(c(-c3nccnc3COC)n4CC)CC(C)(C)COC(=O)[C@@H]3CCCN(N3)C2=O)C(C)C)C1 [US11566007, Example A85] | – | – | – | IC50 (GTPase NRas): > 10000 nM
CCn1c(-c2cnccc2COC)c2c3cc(ccc31)-c1cc(O)cc(c1)C[C@H](NC(=O)[C@H](C(C)C)N(C)C(=O)[C@H]1CCN(C(=O)C#CCN(C)C)C1)C(=O)N1CCC[C@H](N1)C(=O)OCC(C)(C)C2 [US11566007, Example A88] | – | < 10 nM | – | –
C=CC(=O)N1CC[C@H](C(=O)N(C)[C@H](C(=O)N[C@H]2Cc3nc(cs3)-c3ccc4c(c3)c(c(-c3cccnc3COC)n4CC)CC(C)(C)COC(=O)[C@@H]3CCCN(N3)C2=O)C(C)C)C1 [US11566007, Example A94] | in the range around 550 nM | in the range around 550 nM | – | –
CCn1c(-c2cccnc2COC)c2c3cc(ccc31)-c1cc(O)cc(c1)C[C@H](NC(=O)[C@H](C(C)C)N(C)C(=O)[C@H]1CCN(C(=O)C#CCN3CCOCC3)C1)C(=O)N1CCC[C@H](N1)C(=O)OCC(C)(C)C2 [US11566007, Example A95] | < 10 nM | < 10 nM | – | –
CCn1c(-c2cccnc2[C@H](C)OC)c2c3cc(ccc31)-c1cc(O)cc(c1)C[C@H](NC(=O)[C@H](C(C)C)N(C)C(=O)c1nc(NC(=O)/C=C/CN(C)C)cs1)C(=O)N1CCC[C@H](N1)C(=O)OCC(C)(C)C2 [US11566007, Example A258] | in the range around 550 nM | in the range around 550 nM | – | –
C=CC(=O)N1CC[C@H](C(=O)N(C)[C@H](C(=O)NC2C[C@@H]3CN(CCO3)c3ccc4c(c3)c(c(-c3cccnc3COC)n4CC)CC(C)(C)COC(=O)[C@@H]3CCCN(N3)C2=O)C(C)C)C1 (some centres undefined) [US11566007, Example A318] | – | > 10000 nM | – | –
C=CC(=O)N1CC[C@H](C(=O)N(C)[C@H](C(=O)N[C@H]2CC3=NN=C(O3)c3ccc4c(c3)c(c(-c3cccnc3[C@H](C)OCC)n4CC(F)(F)F)CC(C)(C)COC(=O)[C@@H]3CCCN(N3)C2=O)C(C)C)C1 [US11566007, Example A424] | in the range around 550 nM | in the range around 550 nM | – | IC50 (GTPase KRas [G13C]): in the range around 5500 nM

Reference: BindingDB's records for patent US11566007 (Revolution Medicines, 2023)
